pIC50: −log10 of the molar value.
Columns and labels:
Type in all cases: cell-based
[1] = test system: TYK2 pseudokinase (JH2); IL-23-stimulated HEK-Blue IL-23 cells; assay: HEK-Blue IL-23 reporter assay (STAT3-inducible SEAP) for profiling TYK2 pseudokinase (JH2) inhibition; settings: 10 ng/mL human recombinant IL-23, SEAP readout, read-out: IL23 (TYK2 inhibitory activity, IC50)
Method: (§1) Example B-1: HEK-Blue™ IL-23 and IFNα/β Reporter Assays for Profiling TYK2 Pseudokinase (JH2) Inhibition
(§2) HEK-Blue™ IL-23 and IFNα/β cells with a stably-integrated cytokine receptor and STAT3 or STAT1 express STAT-inducible secreted embryonic alkaline phosphatase (SEAP) reporter gene upon cytokine stimulation. These cells are plated in DMEM (Gibco) containing 10% heat-inactivated FBS (Gibco) and 100 U/mL PenStrep (Gibco) at 37° C. under 5% CO2 conditions for 20-22 hours. The cells are then pretreated with serially diluted test compounds for 60 min prior to stimulation with either 10 ng/mL human recombinant IL-23 (Miltenyl Biotech) or 1 ng/mL human recombinant IFNα (InvivoGen) for 22-24 hours for IL-23 or 16-18 h for IFNα. SEAP induction is measured using the QUANTI Blue™ Solution (InvivoGen) according to the manufacturer's instructions.

[2] = test system: TYK2 pseudokinase (JH2); IFNα-stimulated HEK-Blue IFNα/β cells; assay: HEK-Blue IFNα/β reporter assay (STAT1-inducible SEAP) for profiling TYK2 pseudokinase (JH2) inhibition; settings: 1 ng/mL human recombinant IFNα, SEAP readout, read-out: IFNα (TYK2 inhibitory activity, IC50)
Method: as §1, §2

[3] = test system: IL-2-stimulated HEK-Blue IL-2 reporter cells; assay: HEK-Blue IL-2 reporter assay (STAT5-inducible SEAP) for determining selectivity; settings: 4 ng/mL human recombinant IL-2, 24 hours
Method: (§3) Example B-3: HEK-Blue™ IL-2 and IFNγ Reporter Assays for Determining Selectivity
(§4) HEK-Blue™ IL-2 and IFNγ reporter cells with a stably-integrated cytokine receptor and STAT5 or STAT1 express STAT-inducible secreted embryonic alkaline phosphatase (SEAP) reporter gene upon cytokine stimulation. These cells were plated in DMEM (Gibco) containing 10% heat-inactivated FBS (Gibco) and 100 U/mL PenStrep (Gibco) at 37° C. under 5% CO2 conditions for 20-22 hours. The cells were then pretreated with serially diluted test compounds for 60 min prior to stimulation with either 4 ng/mL human recombinant IL-2 (Miltenyl Biotech) or 50 ng/mL human recombinant IFNγ (InvivoGen) for 24 hours. SEAP induction was measured using the QUANTI-Blue™ Solution (InvivoGen) according to the manufacturer's instructions.

[4] = test system: IFNγ-stimulated HEK-Blue IFNγ reporter cells; assay: HEK-Blue IFNγ reporter assay (STAT1-inducible SEAP) for determining selectivity; settings: 50 ng/mL human recombinant IFNγ, 24 hours, read-out: IFN-γ SEAP selectivity assay IC50
Method: as §3, §4

Q: How did the pIC50 [1] turn out when `[2H]C([2H])([2H])NC(=O)c1cnc(NC(=O)C2CC2)cc1Nc1cccc2c1N(C)[C@H](C)c1cn(C)nc1-2` (single isomer, unassigned) [Compound 31] was run?
A: > 7.52

Q: What about the pIC50 [2] of the same compound?
A: 6.52 to 7.52

Q: `[2H]C([2H])([2H])NC(=O)c1nnc(NC(=O)C2CC2)cc1Nc1nccc2c1N(C)[C@@H](C)c1cn(C)nc1-2` (single isomer, unassigned) [Compound 69] was tested. Which pIC50 [1] did it give?
A: 6.52 to 7.52

Q: What about the pIC50 [2] of the same compound?
A: 6.52 to 7.52

Q: `[2H]C([2H])([2H])NC(=O)c1nnc(NC(=O)NC)cc1Nc1nccc2c1N(C)[C@H](C)c1cn(C)nc1-2` (single isomer, unassigned) [Compound 78] was tested. Which pIC50 [1] did it give?
A: 6.52 to 7.52

Q: And the pIC50 [2]?
A: 6.00 to 6.52

Q: Which results are given for `[2H]C([2H])([2H])NC(=O)c1nnc(NC(=O)NC)cc1Nc1nccc2c1N(C)[C@@H](C)c1cn(C)nc1-2` (single isomer, unassigned) [Compound 80]?
A: pIC50 [1]: > 7.52; pIC50 [2]: > 7.52; pIC50 [3]: < 6.00; pIC50 [4]: < 6.00

Q: Which results are given for `CNC(=O)c1nnc(Nc2ccc(F)cn2)cc1Nc1cccc2c1OCc1cn(C3COC3)nc1-2` [Compound 3, 6-[(5-fluoropyridin-2-yl)amino]-N-methyl-4-{[2-(oxetan-3-yl)-2H,4H-chromeno[4,3-c]pyrazol-6-yl]amino}pyridazine-3-carboxamide]?
A: pIC50 [1]: 6.52 to 7.52; pIC50 [2]: < 6.00; pIC50 [3]: 6.00 to 6.52; pIC50 [4]: 6.00 to 6.52

Q: How did the pIC50 [1] turn out when `CNC(=O)c1nnc(NC(=O)C2CC2)cc1Nc1cccc2c1OCc1cn(C3COC3)nc1-2` [Compound 4, 6-(cyclopropanecarboxamido)-N-methyl-4-((2-(oxetan-3-yl)-2,4-dihydrochromeno[4,3-c]pyrazol-6-yl)amino)pyridazine-3-carboxamide] was run?
A: 6.52 to 7.52

Q: What about the pIC50 [2] of the same compound?
A: < 6.00

Q: What about the pIC50 [3] of the same compound?
A: 6.00 to 6.52

Q: What about the pIC50 [4] of the same compound?
A: < 6.00

Q: With `CNC(=O)c1nnc(NC(=O)C2CC2)cc1Nc1cccc2c1OC(C)c1cn(C)nc1-2` (centres unmarked) [Compound 10, 6-(cyclopropanecarboxamido)-4-((2,4-dimethyl-2,4-dihydrochromeno[4,3-c]pyrazol-6-yl)amino)-N-methylpyridazine-3-carboxamide] as the compound, how does the pIC50 [1] read?
A: 6.52 to 7.52

Q: And the pIC50 [2]?
A: < 6.00

Q: How did the pIC50 [1] turn out when `CNC(=O)c1nnc(Nc2ccc(F)cn2)cc1Nc1cccc2c1OC(C)c1cn(C)nc1-2` (centres unmarked) [Compound 11, 4-((2,4-dimethyl-2,4-dihydrochromeno[4,3-c]pyrazol-6-yl)amino)-6-((5-fluoropyridin-2-yl)amino)-N-methylpyridazine-3-carboxamide] was run?
A: 6.52 to 7.52

Q: And the pIC50 [2]?
A: < 6.00

Q: What does the source list for `[2H]C([2H])([2H])NC(=O)c1cnc(NC(=O)C2COC2)cc1Nc1cccc2c1N(C)Cc1cn(C)nc1-2` [Compound 24, 4-((2,5-dimethyl-4,5-dihydro-2H-pyrazolo[4,3-c]quinolin-6-yl)amino)-N-(methyl-d3)-6-(oxetane-3-carboxamido)nicotinamide]?
A: pIC50 [1]: 6.52 to 7.52; pIC50 [2]: 6.52 to 7.52

Q: `[2H]C([2H])([2H])NC(=O)c1nnc(NC(=O)NC)cc1Nc1cccc2c1N(C)C([2H])([2H])c1cn(C)nc1-2` [Compound 33, 4-((2,5-dimethyl-4,5-dihydro-2H-pyrazolo[4,3-c]quinolin-6-yl-4,4-d2)amino)-N-(methyl-d3)-6-(3-methylureido)pyridazine-3-carboxamide] was tested. Which pIC50 [1] did it give?
A: > 7.52

Q: And the pIC50 [2]?
A: > 7.52

Q: What about the pIC50 [3] of the same compound?
A: < 6.00

Q: And the pIC50 [4]?
A: 6.00 to 6.52

Q: What does the source list for `CNC(=O)c1nnc(Nc2cc(C)nc(C)n2)cc1Nc1cccc2c1N(C)Cc1cn(C)nc1-2` [Compound 34, 4-((2,5-dimethyl-4,5-dihydro-2H-pyrazolo[4,3-c]quinolin-6-yl)amino)-6-((2,6-dimethylpyrimidin-4-yl)amino)-N-methylpyridazine-3-carboxamide]?
A: pIC50 [1]: > 7.52; pIC50 [2]: > 7.52; pIC50 [3]: 6.52 to 7.52; pIC50 [4]: 6.52 to 7.52

Q: What does the source list for `[2H]C([2H])([2H])NC(=O)c1cnc(NC(=O)C2CC2)cc1Nc1cccc2c1N(C)Cc1cn(C(C)C)nc1-2` [Compound 37, 6-(cyclopropanecarboxamido)-4-((2-isopropyl-5-methyl-4,5-dihydro-2H-pyrazolo[4,3-c]quinolin-6-yl)amino)-N-(methyl-d3)nicotinamide]?
A: pIC50 [1]: > 7.52; pIC50 [2]: 6.52 to 7.52

Q: With `[2H]C([2H])([2H])NC(=O)c1nnc(NC(=O)C2CC2)cc1Nc1cccc2c1N(C)Cc1cc(C)nn1-2` [Compound 52, 6-(cyclopropanecarboxamido)-4-((2,5-dimethyl-4,5-dihydropyrazolo[1,5-a]quinoxalin-6-yl)amino)-N-(methyl-d3)pyridazine-3-carboxamide] as the compound, how does the pIC50 [1] read?
A: > 7.52

Q: And the pIC50 [2]?
A: > 7.52

Q: And the pIC50 [3]?
A: < 6.00

Q: What about the pIC50 [4] of the same compound?
A: 6.00 to 6.52

Q: What does the source list for `[2H]C([2H])([2H])NC(=O)c1cnc(NC(=O)C2CC2)cc1Nc1cccc2c1N(C)Cc1cc(C)nn1-2` [Compound 53, 6-(cyclopropanecarboxamido)-4-((2,5-dimethyl-4,5-dihydropyrazolo[1,5-a]quinoxalin-6-yl)amino)-N-(methyl-d3)nicotinamide]?
A: pIC50 [1]: > 7.52; pIC50 [2]: > 7.52; pIC50 [3]: < 6.00; pIC50 [4]: 6.52 to 7.52

Q: Which results are given for `[2H]C([2H])([2H])NC(=O)c1nnc(NC(=O)C2CC2)cc1Nc1cccc2c1N(C)Cc1cc(C(F)(F)F)nn1-2` [Compound 54, 6-(cyclopropanecarboxamido)-N-(methyl-d3)-4-((5-methyl-2-(trifluoromethyl)-4,5-dihydropyrazolo[1,5-a]quinoxalin-6-yl)amino)pyridazine-3-carboxamide]?
A: pIC50 [1]: 6.52 to 7.52; pIC50 [2]: 6.00 to 6.52

Q: With `[2H]C([2H])([2H])NC(=O)c1cnc(NC(=O)C2CC2)cc1Nc1cccc2c1N(C)Cc1cc(C(F)(F)F)nn1-2` [Compound 55, 6-(cyclopropanecarboxamido)-N-(methyl-d3)-4-((5-methyl-2-(trifluoromethyl)-4,5-dihydropyrazolo[1,5-a]quinoxalin-6-yl)amino)nicotinamide] as the compound, how does the pIC50 [1] read?
A: 6.52 to 7.52

Q: What about the pIC50 [2] of the same compound?
A: 6.00 to 6.52

Q: With `[2H]C([2H])([2H])NC(=O)c1nnc(NC(=O)C2CC2)cc1Nc1cccc2c1N(C)C([2H])([2H])c1cc(C)nn1-2` [Compound 56, 6-(cyclopropanecarboxamido)-4-((2,5-dimethyl-4,5-dihydropyrazolo[1,5-a]quinoxalin-6-yl-4,4-d2)amino)-N-(methyl-d3)pyridazine-3-carboxamide] as the compound, how does the pIC50 [1] read?
A: > 7.52

Q: What about the pIC50 [2] of the same compound?
A: > 7.52

Q: And the pIC50 [3]?
A: < 6.00

Q: And the pIC50 [4]?
A: 6.52 to 7.52

Q: What does the source list for `[2H]C([2H])([2H])NC(=O)c1cnc(NC(=O)C2CC2)cc1Nc1cccc2c1N(C)C([2H])([2H])c1cc(C)nn1-2` [Compound 57, 6-(cyclopropanecarboxamido)-4-((2,5-dimethyl-4,5-dihydropyrazolo[1,5-a]quinoxalin-6-yl-4,4-d2)amino)-N-(methyl-d3)nicotinamide]?
A: pIC50 [1]: > 7.52; pIC50 [2]: > 7.52; pIC50 [3]: < 6.00; pIC50 [4]: 6.52 to 7.52

Q: With `[2H]C([2H])([2H])NC(=O)c1nnc(N(C)C(=O)C2CC2)cc1Nc1nccc2c1N(C)C([2H])([2H])c1cn(C)nc1-2` [Compound 62, 4-((2,5-dimethyl-4,5-dihydro-2H-pyrazolo[4,3-c][1,7]naphthyridin-6-yl-4,4-d2)amino)-N-(methyl-d3)-6-(N-methylcyclopropanecarboxamido)pyridazine-3-carboxamide] as the compound, how does the pIC50 [1] read?
A: > 7.52

Q: And the pIC50 [2]?
A: 6.52 to 7.52

Q: With `[2H]C([2H])([2H])NC(=O)c1nnc(NC(=O)C2CC2)cc1Nc1nccc2c1N(C)C([2H])([2H])c1cn(C)nc1-2` [Compound 72, 6-(cyclopropanecarboxamido)-4-((2,5-dimethyl-4,5-dihydro-2H-pyrazolo[4,3-c][1,7]naphthyridin-6-yl-4,4-d2)amino)-N-(methyl-d3)pyridazine-3-carboxamide] as the compound, how does the pIC50 [1] read?
A: > 7.52

Q: And the pIC50 [3]?
A: 6.00 to 6.52

Q: With `[2H]C([2H])([2H])NC(=O)c1nnc(NC(=O)C2CC2)cc1Nc1nccc2c1N(C)[C@H](C)c1cc(C)nn1-2` [Compound 81, (R)-6-(cyclopropanecarboxamido)-N-(methyl-d3)-4-((2,4,5-trimethyl-4,5-dihydropyrazolo[1,5-a]pyrido[3,4-e]pyrazin-6-yl)amino)pyridazine-3-carboxamide] as the compound, how does the pIC50 [1] read?
A: > 7.52

Q: What about the pIC50 [2] of the same compound?
A: > 7.52

Q: How did the pIC50 [1] turn out when `[2H]C([2H])([2H])NC(=O)c1nnc(NC(=O)C2CC2)cc1Nc1cccc2c1N(C)Cc1cn(C(C)C)nc1-2` [Compound 91, 6-(cyclopropanecarboxamido)-4-((2-isopropyl-5-methyl-4,5-dihydro-2H-pyrazolo[4,3-c]quinolin-6-yl)amino)-N-(methyl-d3)pyridazine-3-carboxamide] was run?
A: > 7.52

Q: What about the pIC50 [2] of the same compound?
A: 6.52 to 7.52
